Key:
Escherichia coli [1] = experiment: single molecule DNA damage analysis (visualization of damaged lesions in genomic DNA of agarose-embedded cells); assay type: cell-based, Escherichia coli K-12 MG1655
Method: Escherichia coli K-12 MG1655 cells were grown in 5 mL LB broths in a shaking incubator (220 rpm) at 37° C. for six hours. Bacterial cells were harvested by centrifugation (10,000×g, 10 min) and washed twice with 0.85% NaCl solution and re-suspended in the same solution. The cell-suspension was then diluted such that OD600 was approximately between 0.5 and 1 and used for subsequent reactions.
Bacterial suspension (OD600=0.5) was mixed with 2% LGT agarose solution and then dispensed as 20 μL droplets on a surface and solidified in the refrigerator (4° C.) for 10 minutes. […] After incubation, all these plugs were washed in 0.85% NaCl solution for half an hour.
After alcohol treatment, bacteria embedded agarose plugs were subjected to lysis with proteinase K solution (50 units in 500 μL, Tris 10 mM and EDTA 1 mM, pH 8.0 (1×TE)) at 42° C. for 150 min. The plugs were then washed in 1 mL 1×TE overnight. For removing oxidized base adducts, agarose plugs were incubated with a mixture of 10 units Fpg, 10 units Nfo, and 20 units Nei in NEB buffer2 (50 mM NaCl, 10 mM Tris-HCl, 10 mM MgCl2, 1 mM DTT, pH 7.9) at 37° C. for one hour. After enzyme treatment, the plugs were washed twice with 1 mL 1×TE buffer for half-an-hour. The plugs were then incubated with 5 units DNA Polymerase I, 1 mM AlexaFluor-647 labeled dUTP and dNTP mix (1 mM dATP, 1 mM dGTP, 100 μM dCTP, 100 μM dTTP) in the polymerase reaction buffer (50 mM Tris-HCl, 1 mM DTT, 10 mM MgCl2, pH 7.5) at 37° C. for one hour to label gaps or nicks. […] After nick translation, the plugs were washed three times in 1 mL 1×TE buffer for one hour. Then agarose plugs were melted in 400 μL 1×TE buffer at 65° C. for 15 min and stained with 1 μM YOYO-1.
A PDMS device was mounted on the positively charged surface. Then, the solution of DNA molecules melted from low gelling temperature agarose plug was loaded onto the entrance of the microfluidic channels. While the solution moved through the microchannels by capillary action, DNA molecules were elongated and deposited on the positively charged surface.

Escherichia coli [2] = conditions: 30 minutes incubation in ethanol

CCO [ethanol, Ethanol] was tested, and the “number of DNA lesions corresponding to 17% ethanol” value (Escherichia coli [1]; 17% ethanol, 30 minutes, glycosylase mix) was 16.4 lesions/genome, the “DNA length per one lesion at 17% ethanol” value (Escherichia coli [1]; 17% ethanol, 30 minutes, glycosylase mix, one lesion per ~300 kb) was ~300 kb and the “increase in number of DNA lesions with every 1% increase in ethanol concentration” value (Escherichia coli [1]; E. coli embedded agarose plug, 30 minutes incubation, ethanol 5%-40%, glycosylase mix (Fpg, Nfo, Nei), linear fit r^2=0.98) was 0.88 lesions/genome. For the same molecule, the “labels per genome, ethanol incubation without glycosylase treatment” value (Escherichia coli [1]; without glycosylase treatment (triangles in FIG. 2A), 30 minutes incubation) was 1.1-1.4 labels per genome and the “ethanol concentration above which bacterial cells could not survive” value (Escherichia coli [2]) was “above 17%”.
